Reference: patent US20050192337A1, “Processes and polymorphs of diaryl-indolone galr3 antagonists” (priority 2002, published 2005)

Columns and labels:
Type in all cases: physicochemical
[1] = Slurry experiments on Compound I crystalline forms (XRPD); conditions: for Conversion upon stirring as a slurry in an organic solvent: a few hours to several days, Tables 9 and 10
Procedure: (§1) X-ray powder diffraction (XRPD) analyses were performed using a Shimadzu XRD-6000 X-ray powder diffractometer using Cu Kα radiation. The instrument was equipped with a fine focus X-ray tube. The tube voltage and amperage were set to 40 kV and 40 mA, respectively. The divergence and scattering slits were set at 1° and the receiving slit was set at 0.15 mm. Diffracted radiation was detected by a NaI scintillation detector. A theta-two theta continuous scan at 3°/min (0.4 sec/0.02° step) from 2.5 to 40° 2θ was used. A silicon standard was analyzed to check the instrument alignment. Data were collected and analyzed using XRD-6000 v. 4.1. Samples were prepared for analysis by placing them in a silicon sample holder or aluminum holder with silicon insert. X-ray powder diffraction (XRPD) analyses were also performed using an Inel XRG-3000 diffractometer equipped with a CPS (Curved Position Sensitive) detector with a 2θ range of 120°. Real time data were collected using Cu-Kα radiation starting at approximately 4° 2θ at a resolution of 0.03° 2θ. The tube voltage and amperage were set to 40 kV and 30 mA, respectively. The monochromator slit was set at 5 mm by 80 μm. […] Samples were prepared for analysis by packing them into thin-walled glass capillaries. Each capillary was mounted onto a goniometer head that is motorized to permit spinning of the capillary during data acquisition. The samples were analyzed for 5 min. Instrument calibration was performed using a silicon reference standard.
(§2) All three polymorphs are also non-hygroscopic, as indicated by the data in Table 8.
Form I can be obtained in a straightforward fashion by stirring a slurry of any solid form of Compound I, and particularly Form II or III, in an organic solvent in which Compound I is partially soluble, for several hours until the material converts completely to Form I. Formation of Form I can be analyzed through DSC or, preferably, XRPD analysis. In one embodiment of the invention, a slurry of solid Compound I in an organic solvent is generated by cooling a hot, saturated solution of Compound I in an organic solvent, allowing crystals to form, then stirring the resulting slurry for several hours or a few days until the solid material converts substantially or completely to Form I. In a preferred embodiment, the hot, saturated solution of Compound I is generated in situ in the one-pot synthetic process described above. Form I can also be prepared by slurrying for several hours Compound I, Form II in a saturated methanol solution or in an appropriate solvent.

[2] = Moisture sorption/desorption (moisture balance) of Compound I forms
[3] = Stress studies of Compound I (heat stress, XRPD of resulting solid); conditions: for Stability to heat stress: Table 7
Procedure: as §1, §2

[4] = Interconversion experiments of Compound I (slurry of mixed forms, XRPD); conditions: 25° C.
Procedure: as §1, with “Each capillary was mounted onto a goniometer head that is motorized to permit spinning of the capillary during data acquisition.” left out, “Instrument calibration was performed using a silicon reference standard.” left out

[5] = Differential scanning calorimetry, relative stability of forms on heating; conditions: high temperatures, DSC 1° C./min
Procedure: Differential scanning calorimetry (DSC) was performed using a TA Instruments differential scanning calorimeter 2920. The sample was placed into an aluminum DSC pan, and the weight accurately recorded. The pan was covered with a lid and left uncrimped. Each sample was equilibrated at 25° C. and heated under a nitrogen purge at a rate of 10 or 20° C./min, up to a final temperature of 270° C. or 350° C. Samples were also heated at 1 or 5° C./min up to 150° C.

## O=C1C(=Nc2cccc(C(F)(F)F)c2)c2ccccc2N1c1ccccc1 (racemic) [Form III, 1-phenyl-3-[[3-(trifluoromethyl)phenyl]imino]-1H-indol-2-one]
[1]
  Conversion upon stirring as a slurry in an organic solvent: convert to Form I
[2]
  Hygroscopicity: nonhygroscopic
[2]; 5% RH
  Moisture Balance Results: weight loss at 5% RH: <0.1% weight loss at 5% RH,
[2]; listed as III
  Moisture Balance Results: total weight gain at 95% RH: <0.1% total weight gain at
[3]; 60 C., 4 days
  Result (XRPD form after stress): III (SS)
[3]; 70 C., 4 days
  Result (XRPD form after stress): III (SS)
[3]; 80 C., 4 days
  Result (XRPD form after stress): III (SS)
[3]
  Stability to heat stress: relatively stable to heat stress

## O=C1C(=Nc2cccc(C(F)(F)F)c2)c2ccccc2N1c1ccccc1 (racemic) [amorphous, 1-phenyl-3-[[3-(trifluoromethyl)phenyl]imino]-1H-indol-2-one]
[2]; 5% RH
  Moisture Balance Results: weight gain at 5% RH: <0.1% weight gain at 5% RH,
[2]
  Moisture Balance Results: total weight gain at 95% RH: 0.3% total weight gain at
[2]; after moisture balance run
  XRPD Results on solid after moisture balance run: amorphous
[3]; 60 C./17 hours
  Result (XRPD form after stress): III (LC)

## O=C1/C(=N\c2cccc(C(F)(F)F)c2)c2ccccc2N1c1ccccc1 [Compound I, 1-phenyl-3-[[3-(trifluoromethyl)phenyl]imino]-1H-indol-2-one]
[1]; MeOH, ambient, 11 d
  XRPD Results after slurry: I (PO)
[2]; 5% RH
  Moisture Balance Results: weight loss at 5% RH: <0.1% weight loss at 5% RH,
[2]
  Moisture Balance Results: total weight gain at 95% RH: <0.1% total weight gain at

## O=C1/C(=N\c2cccc(C(F)(F)F)c2)c2ccccc2N1c1ccccc1 [Form I, 1-phenyl-3-[[3-(trifluoromethyl)phenyl]imino]-1H-indol-2-one]
[1]
  Conversion upon stirring as a slurry in an organic solvent: remains unchanged
[2]
  Hygroscopicity: nonhygroscopic
[4]
  Relative stability of forms: more stable than either Form II or III
[3]
  Stability to heat stress: relatively stable to heat stress

## O=C1/C(=N\c2cccc(C(F)(F)F)c2)c2ccccc2N1c1ccccc1 [Form II, 1-phenyl-3-[[3-(trifluoromethyl)phenyl]imino]-1H-indol-2-one]
[1]; Experiment 3, MeOH, 25° C., 1 hour
  XRPD Results after slurry: II + I (minor)
[1]; Experiment 4, MeOH, 25° C., 1 hour
  XRPD Results after slurry: I + II
[1]; Experiment 4, MeOH, 25° C., 1 hour 20 min
  XRPD Results after slurry: I + II
[1]; Experiment 4, MeOH, 25° C., 1 hour 40 min
  XRPD Results after slurry: I + II (minor)
[1]; MeOH, ambient, 11 d
  XRPD Results after slurry: I (PO)
[1]
  Conversion upon stirring as a slurry in an organic solvent: convert to Form I
[5]
  Relative stability of forms: more stable than Form I
[2]; 5% RH
  Moisture Balance Results: weight loss at 5% RH: <0.1% weight loss at 5% RH,
[2]
  Moisture Balance Results: total weight gain at 95% RH: <0.1% total weight gain at
[3]; 80 C., 4 days
  Result (XRPD form after stress): II (PO) + peak@5° 2θ
[3]
  Stability to heat stress: relatively stable to heat stress
